One test addresses JH2 domain of human Tyk2 (Homo sapiens (Human), UniProt P29597). Description: JH2 Biochemical Assay (TR-FRET probe displacement). Type of test: binding. A general note: Time-resolved FRET reads energy transfer from a long-lived donor to a nearby acceptor.
The target of the next test is Tyk2 (Homo sapiens (Human), UniProt P29597). As to the kind of experiment: pSTAT4 Cell Assay (MSD, NK92 cells). The class given is cell-based.
Another test has as its target JAK1 (Homo sapiens (Human), UniProt P23458). Description: pSTAT3 Cell Assay (MSD, TF1 cells). The class given is cell-based. As to the method: The inhibitory potency of compounds of the disclosure against the JAK1 kinase activity on STAT3 was evaluated using an MSD-platform plate-based assay format. TF1 cells natively expressing STAT3 and JAK1 were serum-starved to reduce background phosphorylation levels, then cells were treated with compounds of the disclosure for 1 hour with a 10-point four-fold dilution series starting at 10 μM. Cells were then stimulated with 30 ng/mL interleukin 6 (IL-6) for 15 minutes. Cells were lysed and pSTAT3 levels were quantitated using an MSD plate-based assay with anti-STAT3 antibodies. The data were normalized and the percent activity versus log concentration of compound was fitted with a 4-parameter logistic model to generate IC50 curves.

The next test deals with JAK2 (Homo sapiens (Human), UniProt O60674). Description: pSTAT5 Cell Assay (MSD, TF1 cells). Particulars: MSD. The class given is cell-based. How it is done:
Compounds of the disclosure were assessed for their ability to inhibit the JAK2 kinase activity on STAT5 utilizing an MSD-platform plate-based assay format. TF1 cells natively expressing STAT5 and JAK2 were serum-starved to reduce background phosphorylation levels, then cells were treated with compounds of disclosure for 1 hour with a 10-point four-fold dilution series starting at 10 μM. Cells were then stimulated with 30 ng/mL IL-3 for 15 minutes. Cells were then lysed and pSTAT5 levels were quantitated using an MSD plate-based assay with anti-STAT5 antibodies. The data were normalized and the percent activity versus log concentration of compound was fitted with a 4-parameter logistic model to generate a curve and an IC50 value.

Where [1] appears, read: TR-FRET probe displacement, JH2 domain.
Where [2] appears, read: JH2 domain of human Tyk2, TR-FRET probe displacement.

Experimental findings from US20260028365A1 (BIOGEN MA INC., priority 2022, published 2026) are described below.

What is called IC50 is the concentration that gives 50% inhibition.

Where a name gives a salt, the structure may show the parent alone. Read-outs that look alike come from different tables or passages of the source.

Sequence of JAK1 (P23458 whole entry): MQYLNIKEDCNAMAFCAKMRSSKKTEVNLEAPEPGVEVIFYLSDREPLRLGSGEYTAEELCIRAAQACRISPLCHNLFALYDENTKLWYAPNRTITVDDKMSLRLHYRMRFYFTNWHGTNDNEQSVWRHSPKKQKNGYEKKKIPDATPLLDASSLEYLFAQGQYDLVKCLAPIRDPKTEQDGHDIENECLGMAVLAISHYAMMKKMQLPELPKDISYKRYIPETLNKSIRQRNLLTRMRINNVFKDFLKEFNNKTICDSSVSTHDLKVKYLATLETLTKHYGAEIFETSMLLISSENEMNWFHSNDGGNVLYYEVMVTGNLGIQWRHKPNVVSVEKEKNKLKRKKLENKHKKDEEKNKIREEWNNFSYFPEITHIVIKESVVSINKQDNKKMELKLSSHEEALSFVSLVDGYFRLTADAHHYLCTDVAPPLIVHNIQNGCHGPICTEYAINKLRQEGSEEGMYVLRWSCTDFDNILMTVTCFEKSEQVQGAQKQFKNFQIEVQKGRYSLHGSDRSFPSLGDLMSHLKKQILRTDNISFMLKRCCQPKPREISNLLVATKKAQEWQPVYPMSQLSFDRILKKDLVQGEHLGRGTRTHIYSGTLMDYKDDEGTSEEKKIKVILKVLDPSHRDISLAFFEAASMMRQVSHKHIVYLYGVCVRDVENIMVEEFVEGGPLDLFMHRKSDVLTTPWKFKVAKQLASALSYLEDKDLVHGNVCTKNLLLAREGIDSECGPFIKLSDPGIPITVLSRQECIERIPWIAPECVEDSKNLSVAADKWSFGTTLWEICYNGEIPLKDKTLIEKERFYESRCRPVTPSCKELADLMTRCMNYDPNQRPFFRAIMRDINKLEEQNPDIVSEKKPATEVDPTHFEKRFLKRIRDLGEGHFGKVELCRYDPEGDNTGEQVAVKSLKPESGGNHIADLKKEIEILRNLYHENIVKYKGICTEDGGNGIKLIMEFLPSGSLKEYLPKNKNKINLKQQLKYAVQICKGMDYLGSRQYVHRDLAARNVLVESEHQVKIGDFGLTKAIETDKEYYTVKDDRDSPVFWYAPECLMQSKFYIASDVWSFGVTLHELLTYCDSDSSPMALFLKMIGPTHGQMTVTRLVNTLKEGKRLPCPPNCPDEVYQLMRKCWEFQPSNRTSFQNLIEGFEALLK
Sequence of Tyk2 (P29597 whole entry): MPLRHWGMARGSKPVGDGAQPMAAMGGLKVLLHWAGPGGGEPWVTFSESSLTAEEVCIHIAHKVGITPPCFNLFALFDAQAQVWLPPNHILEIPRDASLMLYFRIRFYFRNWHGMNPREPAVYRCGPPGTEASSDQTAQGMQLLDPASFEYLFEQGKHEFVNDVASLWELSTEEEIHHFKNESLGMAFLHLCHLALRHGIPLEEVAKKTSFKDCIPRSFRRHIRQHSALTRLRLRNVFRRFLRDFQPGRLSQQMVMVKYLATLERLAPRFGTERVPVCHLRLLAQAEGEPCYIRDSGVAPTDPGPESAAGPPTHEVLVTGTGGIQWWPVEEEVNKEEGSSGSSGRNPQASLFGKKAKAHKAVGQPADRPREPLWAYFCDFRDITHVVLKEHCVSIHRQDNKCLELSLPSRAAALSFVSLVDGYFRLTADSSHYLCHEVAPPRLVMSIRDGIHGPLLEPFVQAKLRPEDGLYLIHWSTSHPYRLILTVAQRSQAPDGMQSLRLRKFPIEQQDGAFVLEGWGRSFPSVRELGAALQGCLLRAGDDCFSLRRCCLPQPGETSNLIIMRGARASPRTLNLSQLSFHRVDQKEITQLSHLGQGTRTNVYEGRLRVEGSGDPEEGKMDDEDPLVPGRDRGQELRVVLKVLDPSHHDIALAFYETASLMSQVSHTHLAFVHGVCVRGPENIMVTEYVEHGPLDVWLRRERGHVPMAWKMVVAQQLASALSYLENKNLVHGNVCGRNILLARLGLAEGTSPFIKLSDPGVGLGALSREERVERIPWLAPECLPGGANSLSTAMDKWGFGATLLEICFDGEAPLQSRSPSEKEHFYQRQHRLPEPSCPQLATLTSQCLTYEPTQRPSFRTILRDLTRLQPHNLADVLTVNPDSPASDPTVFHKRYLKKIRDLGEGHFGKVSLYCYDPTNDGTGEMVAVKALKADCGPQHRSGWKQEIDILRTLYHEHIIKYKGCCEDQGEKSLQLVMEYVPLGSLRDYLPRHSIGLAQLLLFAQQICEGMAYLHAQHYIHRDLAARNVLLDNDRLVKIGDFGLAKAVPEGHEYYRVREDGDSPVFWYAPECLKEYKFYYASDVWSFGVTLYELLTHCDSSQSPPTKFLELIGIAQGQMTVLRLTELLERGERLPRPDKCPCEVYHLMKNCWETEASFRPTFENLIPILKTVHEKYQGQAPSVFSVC
Sequence of JH2 domain of human Tyk2 (P29597 575-876): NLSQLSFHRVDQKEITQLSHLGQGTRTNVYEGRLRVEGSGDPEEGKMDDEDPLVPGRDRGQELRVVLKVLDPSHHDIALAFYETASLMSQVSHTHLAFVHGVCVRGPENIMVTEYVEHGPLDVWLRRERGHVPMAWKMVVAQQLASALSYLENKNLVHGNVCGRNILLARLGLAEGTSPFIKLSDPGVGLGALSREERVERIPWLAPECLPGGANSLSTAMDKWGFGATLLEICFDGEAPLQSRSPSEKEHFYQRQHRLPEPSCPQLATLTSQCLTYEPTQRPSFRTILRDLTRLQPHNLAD
Sequence of JAK2 (O60674 whole entry): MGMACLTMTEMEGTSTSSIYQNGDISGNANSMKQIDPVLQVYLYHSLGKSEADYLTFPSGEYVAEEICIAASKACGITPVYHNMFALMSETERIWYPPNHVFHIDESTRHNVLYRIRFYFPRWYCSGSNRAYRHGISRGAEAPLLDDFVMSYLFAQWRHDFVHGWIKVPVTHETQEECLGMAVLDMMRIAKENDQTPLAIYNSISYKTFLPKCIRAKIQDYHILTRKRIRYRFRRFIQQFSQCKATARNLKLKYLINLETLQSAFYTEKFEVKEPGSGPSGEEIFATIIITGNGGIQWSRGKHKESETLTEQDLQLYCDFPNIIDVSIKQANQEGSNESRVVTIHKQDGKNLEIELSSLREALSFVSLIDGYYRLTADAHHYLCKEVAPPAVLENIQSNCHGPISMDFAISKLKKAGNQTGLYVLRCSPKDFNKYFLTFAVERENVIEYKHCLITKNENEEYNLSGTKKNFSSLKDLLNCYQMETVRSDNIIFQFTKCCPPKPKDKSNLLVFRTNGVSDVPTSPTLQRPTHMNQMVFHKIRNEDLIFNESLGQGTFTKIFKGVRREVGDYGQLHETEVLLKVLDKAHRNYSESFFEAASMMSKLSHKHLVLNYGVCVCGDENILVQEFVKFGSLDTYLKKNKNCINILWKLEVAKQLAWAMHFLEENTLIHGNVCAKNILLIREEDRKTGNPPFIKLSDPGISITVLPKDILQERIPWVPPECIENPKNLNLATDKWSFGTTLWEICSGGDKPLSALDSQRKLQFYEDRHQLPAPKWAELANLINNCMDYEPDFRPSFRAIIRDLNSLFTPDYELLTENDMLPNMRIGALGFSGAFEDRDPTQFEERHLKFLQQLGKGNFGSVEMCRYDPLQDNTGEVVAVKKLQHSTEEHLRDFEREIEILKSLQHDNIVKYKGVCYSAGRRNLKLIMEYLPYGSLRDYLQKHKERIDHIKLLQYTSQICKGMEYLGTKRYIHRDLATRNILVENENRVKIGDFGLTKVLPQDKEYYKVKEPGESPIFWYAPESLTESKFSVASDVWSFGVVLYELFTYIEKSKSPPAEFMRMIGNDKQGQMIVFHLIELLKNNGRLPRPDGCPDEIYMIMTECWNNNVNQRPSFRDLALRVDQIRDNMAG

Regarding `CC(=O)Nc1cc(Nc2cc(C)nc(C(C)(F)F)n2)c(-c2cn3c(n2)COCC3)cn1` [Example 768, N-(4-((2-(1,1-difluoroethyl)-6-methylpyrimidin-4-yl)amino)-5-(5,6-dihydrO8H-imidazo[2,1-c][1,4]oxazin-2-yl)pyridin-2-yl)acetamide], the IC50 was at most 0.01 µM on JH2 domain of human Tyk2 (setting [1]), at most 0.01 µM on Tyk2 and at least 1 µM on JAK1 (IL-6 stimulated).

Consider `CC(=O)Nc1cc(Nc2cc(C)nc(C(C)(F)F)n2)c(OCC(C)(C)F)cn1` [Example 119, N-(4-((2-(1,1-difluoroethyl)-6-methylpyrimidin-4-yl)amino)-5-(2-fluoro-2-methylpropoxy)pyridin-2-yl)acetamide], for which the half-maximal inhibitory concentration (IC50) against JAK2 (IL-3 stimulation) was at least 1 µM; against Tyk2 (MSD), 0.01 to 0.1 µM; against JAK1 (IL-6 stimulation, MSD), at least 1 µM.

For the compound `CNc1ccc(-c2cnc(NC(C)=O)cc2Nc2ccnc(C(C)(F)F)n2)nc1` [Example 857, N-(4′-((2-(1,1-difluoroethyl)pyrimidin-4-yl)amino)-5-(methylamino)-[2,3′-bipyridin]-6′-yl)acetamide], the values for the IC50 on JH2 domain of human Tyk2 (setting [1]), at Tyk2 and on JAK1 (IL-6 stimulated) were at most 0.01 µM, at most 0.01 µM and at least 1 µM, respectively.

Take `CC(=O)Nc1cc(Nc2cc(C)nc(C(C)(C)F)n2)c(-c2ccncn2)cn1` [Example 800, N-(4-((2-(2-fluoropropan-2-yl)-6-methylpyrimidin-4-yl)amino)-5-(pyrimidin-4-yl)pyridin-2-yl)acetamide]: the IC50 on JH2 domain of human Tyk2 (setting [1]) is at most 0.01 µM; on Tyk2, at most 0.01 µM; on JAK1 (IL-6 stimulated) it was at least 1 µM.

For the compound `COCCc1cnc(-c2cnc(NC(C)=O)cc2Nc2cc(C)nc(C(C)(F)F)n2)s1` [Example 756, N-(4-((2-(1,1-difluoroethyl)-6-methylpyrimidin-4-yl)amino)-5-(5-(2-methoxyethyl)thiazol-2-yl)pyridin-2-yl)acetamide], the IC50 was at most 0.01 µM on JH2 domain of human Tyk2 (setting [1]), 0.1 to 1 µM at Tyk2 and at least 1 µM against JAK1 (IL-6 stimulated).

Turning to `CCc1cc(Nc2cc(NC(C)=O)ncc2-c2ccc(NC)cn2)nc(C(C)(F)F)n1` [Example 859, N-(4′-((2-(1,1-difluoroethyl)-6-ethylpyrimidin-4-yl)amino)-5-(methylamino)-[2,3′-bipyridin]-6′-yl)acetamide], the half-inhibitory concentration (IC50) is at most 0.01 µM on JH2 domain of human Tyk2 (setting [1]), at most 0.01 µM on Tyk2 and at least 1 µM against JAK1 (IL-6 stimulated).

With `COCCOc1nccc(-c2cnc(NC(C)=O)cc2Nc2cc(C)nc(C(C)(F)F)n2)n1` [Example 776, N-(4-((2-(1,1-difluoroethyl)-6-methylpyrimidin-4-yl)amino)-5-(2-(2-methoxyethoxy)pyrimidin-4-yl)pyridin-2-yl)acetamide], the half-inhibitory concentration (IC50) at JH2 domain of human Tyk2 (setting [1]) is at most 0.01 µM; against Tyk2 it was at most 0.01 µM; against JAK1 (IL-6 stimulated), at least 1 µM.

`CC(=O)Nc1cc(Nc2cc(C)nc(C34COC(C3)C4)n2)c(-c2ccncn2)cn1` [Example 748, N-(4-((2-(2-oxabicyclo[2.1.1]hexan-4-yl)-6-methylpyrimidin-4-yl)amino)-5-(pyrimidin-4-yl)pyridin-2-yl)acetamide]: the IC50 at JH2 domain of human Tyk2 (setting [1]) is at most 0.01 µM; at Tyk2, at most 0.01 µM; against JAK1 (IL-6 stimulated), at least 1 µM.

With `CC(=O)Nc1cc(Nc2cc(C)nc(C(C)(F)F)n2)c(-c2cccc([C@H]3CN(C)CCO3)n2)cn1` (single isomer, unassigned) [Example 642, (R)-N-(4′-((2-(1,1-difluoroethyl)-6-methylpyrimidin-4-yl)amino)-6-(4-methylmorpholin-2-yl)-[2,3′-bipyridin]-6′-yl)acetamide or (S)-N-(4′-((2-(1,1-difluoroethyl)-6-methylpyrimidin-4-yl)amino)-6-(4-methylmorpholin-2-yl)-[2,3′-bipyridin]-6′-yl)acetamide], the half-maximal inhibitory concentration (IC50) at JH2 domain of human Tyk2 (setting [2]) is at most 0.01 µM; against Tyk2 (MSD), at most 0.01 µM; on JAK1 (IL-6 stimulated, MSD) it was at least 1 µM.

Regarding `CC(=O)Nc1cc(Nc2ccnc(C(C)(F)F)n2)c(-c2ccnc(C(F)F)n2)cn1` [Example 775, N-(4-((2-(1,1-difluoroethyl)pyrimidin-4-yl)amino)-5-(2-(difluoromethyl)pyrimidin-4-yl)pyridin-2-yl)acetamide], the half-inhibitory concentration (IC50) at JH2 domain of human Tyk2 (setting [1]) is at most 0.01 µM; at Tyk2 it was at most 0.01 µM; against JAK1 (IL-6 stimulated), at least 1 µM.

As for `COc1ccc(-c2cnc(NC(C)=O)cc2Nc2ccnc(C(C)(F)F)n2)nn1` [Example 214, N-(4-((2-(1,1-difluoroethyl)pyrimidin-4-yl)amino)-5-(6-methoxypyridazin-3-yl)pyridin-2-yl)acetamide trifluoroacetate], the half-maximal inhibitory concentration (IC50) on JH2 domain of human Tyk2 (TR-FRET probe displacement, JH2 domain of human Tyk2) was at most 0.01 µM; on Tyk2 (MSD) it was at most 0.01 µM; on JAK1 (IL-6 stimulation, MSD) it was at least 1 µM.

Consider `CC(=O)Nc1cc(Nc2cc(C)nc(C(C)(F)F)n2)c(OCC2COCCO2)cn1` (stereo not drawn) [Example 135, N-(5-((1,4-dioxan-2-yl)methoxy)-4-((2-(1,1-difluoroethyl)-6-methylpyrimidin-4-yl)amino)pyridin-2-yl)acetamide], for which the 50% inhibitory concentration (IC50) against JAK2 (IL-3 stimulation) was at least 1 µM; against Tyk2 (MSD), at most 0.01 µM; against JAK1 (IL-6 stimulation, MSD), at least 1 µM.

`CC(=O)Nc1cc(Nc2ccnc(C(C)(F)F)n2)c(-c2ccc(CN3CCOC[C@@H]3C)cn2)cn1` [Example 892, (S)-N-(4′-((2-(1,1-difluoroethyl)pyrimidin-4-yl)amino)-5-((3-methylmorpholino)methyl)-[2,3′-bipyridin]-6′-yl)acetamide]: the IC50 is at most 0.01 µM at JH2 domain of human Tyk2 (setting [1]), at most 0.01 µM on Tyk2 and at least 1 µM against JAK1 (IL-6 stimulated).

Turning to `Cc1cc(Nc2cc(NC(N)=O)ncc2-c2ccc(F)cn2)nc(C(C)(F)F)n1` [Example 291, 1-(4′-((2-(1,1-difluoroethyl)-6-methylpyrimidin-4-yl)amino)-5-fluoro-[2,3′-bipyridin]-6′-yl)urea], the 50% inhibitory concentration (IC50) at JAK2 (IL-3 stimulation) was at least 1 µM; at Tyk2 (MSD), at most 0.01 µM; on JAK1 (IL-6 stimulation, MSD), 0.1 to 1 µM.

For the compound `COCCn1ncc(-c2cnc(NC(C)=O)cc2Nc2ccnc(C(C)(F)F)n2)n1` [Example 710, N-(4-((2-(1,1-difluoroethyl)pyrimidin-4-yl)amino)-5-(2-(2-methoxyethyl)-2H-1,2,3-triazol-4-yl)pyridin-2-yl)acetamide], the values for the IC50 on JH2 domain of human Tyk2 (setting [2]), at JAK2 (IL-3 stimulated) and against Tyk2 (MSD) were at most 0.01 µM, at least 1 µM and at most 0.01 µM, respectively.

Consider `CC(=O)Nc1cc(Nc2ccnc(C(C)(F)F)n2)c(-c2cn3c(n2)CCCC3)cn1` [Example 780, N-(4-((2-(1,1-difluoroethyl)pyrimidin-4-yl)amino)-5-(5,6,7,8-tetrahydroimidazo[1,2-a]pyridin-2-yl)pyridin-2-yl)acetamide], for which the IC50 on JH2 domain of human Tyk2 (setting [1]) is at most 0.01 µM; at Tyk2 it was at most 0.01 µM; at JAK1 (IL-6 stimulated), at least 1 µM.

As to `Cc1cc(Nc2cc(NC(N)=O)ncc2-c2ccc(C#N)cn2)nc(C(C)(F)F)n1` [Example 292, 1-(5-cyano-4′-((2-(1,1-difluoroethyl)-6-methylpyrimidin-4-yl)amino)-[2,3′-bipyridin]-6′-yl)urea], the concentration for half-maximal inhibition (IC50) against JAK2 (IL-3 stimulation) was at least 1 µM; against Tyk2 (MSD), at most 0.01 µM; at JAK1 (IL-6 stimulation, MSD), at least 1 µM.

As for `CC(=O)Nc1cc(Nc2ccnc(C(C)(F)F)n2)c(-c2nc3c(s2)CN(C)CC3)cn1` [Example 798, N-(4-((2-(1,1-difluoroethyl)pyrimidin-4-yl)amino)-5-(5-methyl-4,5,6,7-tetrahydrothiazolo[5,4-c]pyridin-2-yl)pyridin-2-yl)acetamide], the concentration for half-maximal inhibition (IC50) was at most 0.01 µM at JH2 domain of human Tyk2 (setting [1]), at most 0.01 µM at Tyk2 and at least 1 µM on JAK1 (IL-6 stimulated).
